# “And” between values parts separate entries of the source, which are not always exact repeats. Equal entries are not always repeated. Toxic doses and inconclusive results are not listed.
# Test system: L1210 leukemia ip in BDF1 mice, survival T/C
# Test: NCI In Vivo Anticancer Drug Screen. Data for tumor model L1210 Leukemia (intraperitoneal) in B6D2F1 (BDF1) mice
# Details: endpoint: mean survival time, higher = longer survival
# Outline: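 Survival endpoint. Drug-treated group vs vehicle group, expressed as T divided by C. Tumor passaged by transplantation.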
# [1] = dose: 100.0 mg/kg/injection, schedule: Q01DX001 (ip), vehicle: saline
# [2] = dose: 200.0 mg/kg/injection, schedule: Q01DX001 (ip), vehicle: saline
# [3] = dose: 400.0 mg/kg/injection, schedule: Q01DX001 (ip), vehicle: saline
# [4] = dose: 100.0 mg/kg/injection, schedule: Q01DX009 (ip), vehicle: Klucel (hydroxypropylcellulose) (HPC)
# [5] = dose: 100.0 mg/kg/injection, schedule: Q04DX003 (ip), vehicle: Klucel (hydroxypropylcellulose) (HPC)
# [6] = dose: 200.0 mg/kg/injection, schedule: Q01DX001 (ip), vehicle: Klucel (hydroxypropylcellulose) (HPC)
# [7] = dose: 200.0 mg/kg/injection, schedule: Q01DX009 (ip), vehicle: Klucel (hydroxypropylcellulose) (HPC)
# [8] = dose: 200.0 mg/kg/injection, schedule: Q04DX003 (ip), vehicle: Klucel (hydroxypropylcellulose) (HPC)
# [9] = dose: 100.0 mg/kg/injection, schedule: Q04DX003 (ip), vehicle: saline with Tween-80
# [10] = dose: 200.0 mg/kg/injection, schedule: Q04DX003 (ip), vehicle: saline with Tween-80
# [11] = dose: 100.0 mg/kg/injection, schedule: Q04DX002 (ip), vehicle: Klucel (hydroxypropylcellulose) (HPC)
# [12] = dose: 200.0 mg/kg/injection, schedule: Q04DX002 (ip), vehicle: Klucel (hydroxypropylcellulose) (HPC)
# [13] = dose: 400.0 mg/kg/injection, schedule: Q04DX002 (ip), vehicle: Klucel (hydroxypropylcellulose) (HPC)
smiles,measurement,setting,value
CCc1ccccc1N1CCN(C(=O)c2cc(OC)c(OC)c(OC)c2)CC1,T/C,"dose: 25.0 mg/kg/injection, schedule: Q01DX009 (ip), vehicle: saline",100 % of control
same,T/C,"dose: 50.0 mg/kg/injection, schedule: Q01DX009 (ip), vehicle: saline",102 % of control and 105 % of control
same,T/C,"dose: 50.0 mg/kg/injection, schedule: Q01DX Z (ip), vehicle: carboxymethylcellulose (CMC)",104 % of control
same,T/C,"dose: 50.0 mg/kg/injection, schedule: Q04DX003 (ip), vehicle: acetone",98 % of control
same,T/C,"dose: 50.0 mg/kg/injection, schedule: Q04DX003 (ip), vehicle: saline",94 % of control
same,T/C,"dose: 74.0 mg/kg/injection, schedule: Q01DX009 (ip), vehicle: saline",100 % of control
same,T/C,"dose: 74.0 mg/kg/injection, schedule: Q01DX Z (ip), vehicle: carboxymethylcellulose (CMC)",107 % of control
same,T/C,"dose: 74.0 mg/kg/injection, schedule: Q04DX003 (ip), vehicle: saline",92 % of control
same,T/C,[1],100 % of control
same,T/C,"dose: 100.0 mg/kg/injection, schedule: Q01DX009 (ip), vehicle: saline",114 % of control
same,T/C,"dose: 100.0 mg/kg/injection, schedule: Q04DX003 (ip), vehicle: acetone",97 % of control
same,T/C,"dose: 112.0 mg/kg/injection, schedule: Q01DX009 (ip), vehicle: saline",97 % of control
same,T/C,"dose: 112.0 mg/kg/injection, schedule: Q01DX Z (ip), vehicle: carboxymethylcellulose (CMC)",102 % of control
same,T/C,"dose: 112.0 mg/kg/injection, schedule: Q04DX003 (ip), vehicle: saline",99 % of control
same,T/C,"dose: 168.0 mg/kg/injection, schedule: Q01DX009 (ip), vehicle: saline",108 % of control
same,T/C,"dose: 168.0 mg/kg/injection, schedule: Q04DX003 (ip), vehicle: saline",97 % of control and 99 % of control
same,T/C,[2],103 % of control
same,T/C,"dose: 200.0 mg/kg/injection, schedule: Q01DX009 (ip), vehicle: saline",100 % of control
same,T/C,"dose: 200.0 mg/kg/injection, schedule: Q04DX003 (ip), vehicle: saline",103 % of control
same,T/C,"dose: 225.0 mg/kg/injection, schedule: Q01DX009 (ip), vehicle: saline",97 % of control
same,T/C,"dose: 250.0 mg/kg/injection, schedule: Q04DX003 (ip), vehicle: saline",103 % of control
CN(C)CCN(CC(=O)O)CC(=O)O,T/C,[1],100 % of control
same,T/C,[2],102 % of control
same,T/C,[3],100 % of control
CCC(=O)Nc1ccc(F)cc1,T/C,"dose: 100.0 mg/kg/injection, schedule: Q01DX001 (ip), vehicle: Klucel (hydroxypropylcellulose) (HPC)",105 % of control
same,T/C,[4],99 % of control
same,T/C,[5],94 % of control
same,T/C,[6],99 % of control
same,T/C,[7],113 % of control
same,T/C,[8],94 % of control
same,T/C,"dose: 400.0 mg/kg/injection, schedule: Q01DX001 (ip), vehicle: Klucel (hydroxypropylcellulose) (HPC)",93 % of control
same,T/C,"dose: 400.0 mg/kg/injection, schedule: Q01DX009 (ip), vehicle: Klucel (hydroxypropylcellulose) (HPC)",120 % of control
same,T/C,"dose: 400.0 mg/kg/injection, schedule: Q04DX003 (ip), vehicle: Klucel (hydroxypropylcellulose) (HPC)",105 % of control
CCCCCC[CH2][Ge][CH2]CCCCCC,T/C,"dose: 100.0 mg/kg/injection, schedule: Q04DX002 (ip), vehicle: saline with Tween-80",95 % of control
same,T/C,"dose: 200.0 mg/kg/injection, schedule: Q04DX002 (ip), vehicle: saline with Tween-80",92 % of control
same,T/C,"dose: 400.0 mg/kg/injection, schedule: Q04DX002 (ip), vehicle: saline with Tween-80",103 % of control
O=C(O)c1cc(C(=O)c2ccccn2)c2cccc(C(F)(F)F)c2n1,T/C,"dose: 50.0 mg/kg/injection, schedule: Q01DX009 (ip), vehicle: Klucel (hydroxypropylcellulose) (HPC)",98 % of control
same,T/C,[4],95 % of control
same,T/C,[5],97 % of control
same,T/C,[7],93 % of control
same,T/C,[8],97 % of control
OC(CC1=NNC(=S)NC1)(C(F)(F)F)C(F)(F)F,T/C,[9],95 % of control
same,T/C,[10],87 % of control
CCOC(=O)C(=Cc1ccccc1)C(=O)OCC,T/C,[1],96 % of control
same,T/C,[11],98 % of control
same,T/C,[2],100 % of control
same,T/C,[12],95 % of control
same,T/C,[3],100 % of control
same,T/C,[13],102 % of control
c1ccc2c(c1)OC1(CCSCC1)O2,T/C,[9],98 % of control
same,T/C,[10],95 % of control
same,T/C,"dose: 400.0 mg/kg/injection, schedule: Q04DX003 (ip), vehicle: saline with Tween-80",97 % of control
O=C1/C(=C\c2ccc(Cl)c(Cl)c2)N2CCC1CC2,T/C,[11],96 % of control
same,T/C,[12],104 % of control
same,T/C,[13],114 % of control
N=c1nc(N)c([N+](=O)[O-])c(N)n1O,T/C,"dose: 100.0 mg/kg/injection, schedule: Q01DX001 (ip), vehicle: carboxymethylcellulose (CMC)",100 % of control
same,T/C,"dose: 200.0 mg/kg/injection, schedule: Q01DX001 (ip), vehicle: carboxymethylcellulose (CMC)",97 % of control
same,T/C,"dose: 400.0 mg/kg/injection, schedule: Q01DX001 (ip), vehicle: carboxymethylcellulose (CMC)",100 % of control
CC1CN1C(=O)Nc1cccc2c(NC(=O)N3CC3C)cccc12 (stereo unspecified),T/C,"dose: 1.58 mg/kg/injection, schedule: Q01DX009 (ip), vehicle: Klucel (hydroxypropylcellulose) (HPC)",95 % of control
same,T/C,"dose: 2.38 mg/kg/injection, schedule: Q01DX009 (ip), vehicle: Klucel (hydroxypropylcellulose) (HPC)",101 % of control
same,T/C,"dose: 12.34 mg/kg/injection, schedule: Q01DX009 (ip), vehicle: Klucel (hydroxypropylcellulose) (HPC)",122 % of control
same,T/C,"dose: 12.5 mg/kg/injection, schedule: Q04DX003 (ip), vehicle: Klucel (hydroxypropylcellulose) (HPC)",117 % of control
same,T/C,"dose: 35.0 mg/kg/injection, schedule: Q04DX003 (ip), vehicle: Klucel (hydroxypropylcellulose) (HPC)",105 % of control
same,T/C,"dose: 50.0 mg/kg/injection, schedule: Q01DX001 (ip), vehicle: Klucel (hydroxypropylcellulose) (HPC)",118 % of control and 121 % of control
same,T/C,"dose: 50.0 mg/kg/injection, schedule: Q04DX003 (ip), vehicle: Klucel (hydroxypropylcellulose) (HPC)",157 % of control
same,T/C,"dose: 55.0 mg/kg/injection, schedule: Q04DX003 (ip), vehicle: Klucel (hydroxypropylcellulose) (HPC)",207 % of control
same,T/C,"dose: 75.0 mg/kg/injection, schedule: Q01DX001 (ip), vehicle: Klucel (hydroxypropylcellulose) (HPC)",119 % of control
same,T/C,"dose: 75.0 mg/kg/injection, schedule: Q04DX003 (ip), vehicle: Klucel (hydroxypropylcellulose) (HPC)",117 % of control
same,T/C,"dose: 85.0 mg/kg/injection, schedule: Q01DX009 (ip), vehicle: Klucel (hydroxypropylcellulose) (HPC)",89 % of control
same,T/C,"dose: 85.0 mg/kg/injection, schedule: Q04DX003 (ip), vehicle: Klucel (hydroxypropylcellulose) (HPC)",116 % of control
same,T/C,"dose: 170.0 mg/kg/injection, schedule: Q04DX003 (ip), vehicle: Klucel (hydroxypropylcellulose) (HPC)",118 % of control
same,T/C,[6],88 % of control
CCC(/C=N/N=C(N)N)=N\N=C(N)N,T/C,"dose: 15.0 mg/kg/injection, schedule: Q01DX Z (ip), vehicle: saline",97 % of control
same,T/C,"dose: 30.0 mg/kg/injection, schedule: Q01DX Z (ip), vehicle: saline",103 % of control
same,T/C,"dose: 30.0 mg/kg/injection, schedule: Q01DX Z (oral), vehicle: saline",102 % of control
same,T/C,"dose: 60.0 mg/kg/injection, schedule: Q01DX Z (ip), vehicle: saline",103 % of control and 115 % of control
same,T/C,"dose: 60.0 mg/kg/injection, schedule: Q01DX Z (oral), vehicle: saline",101 % of control
same,T/C,"dose: 120.0 mg/kg/injection, schedule: Q01DX Z (ip), vehicle: saline",108 % of control
same,T/C,"dose: 120.0 mg/kg/injection, schedule: Q01DX Z (oral), vehicle: saline",97 % of control and 106 % of control
same,T/C,"dose: 240.0 mg/kg/injection, schedule: Q01DX Z (oral), vehicle: saline",102 % of control and 104 % of control
same,T/C,"dose: 480.0 mg/kg/injection, schedule: Q01DX Z (oral), vehicle: saline",111 % of control

# From PubChem BioAssay AID248 (DTP/NCI, 2004)
